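Cells were grown in 96-well plates and exposed to each compound for 48 hours at five concentrations; endpoints were interpolated linearly between bracketing concentrations, or set to the highest concentration if not reached. GI50 marks 50% less growth. TGI denotes the concentration required for complete inhibition of growth.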
Columns and labels:
Test in all cases: NCI tumour cell line growth inhibition, 48 h
[1] = test system: CAKI-1 renal
[2] = test system: HCC-2998 colon
[3] = test system: IGROV1 ovarian
[4] = test system: K-562 leukemia
[5] = test system: M14 melanoma
[6] = test system: OVCAR-8 ovarian
[7] = test system: SK-OV-3 ovarian
[8] = test system: T-47D breast
[9] = test system: U251 CNS
[10] = test system: UACC-257 melanoma

SMILES	TGI [1] [µM]	TGI [2] [µM]	TGI [3] [µM]	TGI [4] [µM]	TGI [5] [µM]	TGI [6] [µM]	TGI [7] [µM]	TGI [8] [µM]	TGI [9] [µM]	TGI [10] [µM]	GI50 [6] [µM]	GI50 [1] [µM]	GI50 [2] [µM]	GI50 [3] [µM]	GI50 [4] [µM]	GI50 [7] [µM]	GI50 [8] [µM]	GI50 [9] [µM]	GI50 [10] [µM]
CCOC(=O)C(Cc1ccc(OC(=O)OC(C)(C)C)cc1)NC(=O)OC(C)(C)C (centres undefined)	> 100	76.6	> 100	> 100	79.9	> 100	> 100	70.7	> 100	54.3									
Clc1ccc(-c2cn3c(nc4ccccc43)c(/C=C/c3ccco3)n2)cc1		> 100	> 100	> 100	> 100		> 100	> 100	> 100	> 100									
COc1ccccc1NC(=O)CC(=O)N1N=C(N2c3ccccc3Sc3ccccc32)CC1c1ccccc1 (centres undefined)	> 100	> 100	> 100	> 100	> 100	> 100	> 100	> 100	> 100	> 100									
Cc1ccc(C(=O)Nc2ccc(CP(=O)(O)O)cc2CP(=O)(O)O)cc1NC(=O)Nc1cc(C(=O)Nc2ccc(CP(=O)(O)O)cc2CP(=O)(O)O)ccc1C	> 100	> 100	> 100	> 100	> 100	> 100	> 100	> 100	> 100	> 100									
C[C@@H]1C(=O)C[C@H]2C(C)(C)CCC[C@]2(C)[C@@]1(O)CCc1ccoc1	> 100	> 100	> 100	> 100	> 100	> 100	> 100	> 100	> 100	> 100									
Cc1sc2c(c1C)/C(=N\O)c1cccn1-2	> 100	> 100	> 100		> 100	> 100	> 100	> 100	69.7	> 100									
CCCCCCCCCCCCCCCCOP(=O)(O)OCC(N)C(=O)O (centres undefined)	28	> 100	34.7	56.9	46.5	> 100	63.8	> 100	26.5	> 100									
O=c1ccn(C2OC(CO)C(O)C2F)c(=O)n1Cc1ccccc1 (centres undefined)	> 100		> 100	> 100		> 100		> 100	> 100	> 100									
COc1cc2c3c(n(C)c(=O)c2cc1OC)-c1cc2c(cc1/C3=C\CCCI)OCO2	> 100	> 100	> 46.7	> 100	> 100	> 100	> 100	> 95.4	> 100	> 100									
O=C(/C=C/c1cccc(Oc2ccccc2)c1)NCc1ccc(C(=O)NCCc2ccccc2)cc1	> 100	> 100	> 100	> 100	> 100	> 100	> 100	> 100	> 100	> 100									
CC(O)(P(=O)(O)O)P(=O)(O)OCC(O)CN1CCOCC1 (centres undefined)	> 100	> 100	> 100	> 100	> 100	> 100	> 100		> 100	> 100									
O=c1[nH]cc(Cl)c(=O)[nH]1	> 100	> 100	> 100	> 100	> 100	> 100	> 100	> 100	> 100	> 100									
Clc1cccc(NN=Nc2ccc(-c3nc4ccccc4s3)cc2)c1	> 100	> 100	54.5	92.5	> 100	45.9	> 100	> 100	> 100	> 100									
Nc1nc(Cl)cc(NC2(CO)CCC2)n1	> 100	> 100	> 100	> 100		> 100		> 100	> 100	> 100									
CCOC(=O)c1nc2ccc(C(F)(F)F)cc2nc1Nc1ccc(Cl)c(Cl)c1	> 100	> 100	> 100	> 100	> 100	> 100	> 100	> 100		> 100									
N=c1c2c(=S)n(-c3ccccc3)c(=S)n(-c3ccccc3)c2nc(SCCN2CCCC2)n1-c1ccccc1	3.11	2.78	3.52	3.62	3.44	4.2	25.3	8.44	8.36	3.06									
COc1cc(OC)c2c3c(OC)cc(OC)c4c(=O)c(O)c(C[C@@H](C)O)c(c5c(C[C@@H](C)O)c(O)c(=O)c1c25)c43	53.2	32	49.2		47	58.4	> 100	44.5	67.9	> 100									
O=C(c1ccc(Cl)cc1)N(C(=S)N1CCN(c2ccccn2)CC1)C1CCCCC1	> 100		> 100	> 100	> 100	> 100	> 100		> 100	> 100									
Nc1[nH]nc2nc3ccccc3nc12	> 100	> 100	99.2	> 100		> 100	> 100		> 100	> 100									
NC1=NS(=O)(=O)Nc2nc(-c3ccccc3)[nH]c21		> 100	> 100	> 100	> 100	> 100	> 100		> 100	> 100									
C=C(NC(=O)C(=C)NC(=O)c1csc(C2=NC3c4csc(n4)C4NC(=O)c5csc(n5)C(C(C)(O)C(C)O)NC(=O)C5CSC(=N5)/C(=C/C)NC(=O)C(C(C)O)NC(=O)c5csc(n5)C3(CC2)NC(=O)C(C)NC(=O)C(=C)NC(=O)C(C)NC(=O)C(C(C)CC)NC2C=Cc3c(C(C)O)cc(nc3C2O)C(=O)OC4C)n1)C(N)=O (centres undefined)	> 100	> 39.9	63.8		3.17	10.8	> 67.8		3.04	4.22	1.6								
Cc1c(N=Nc2ccccc2)c(C)n(C2OC(CO)C(O)C(O)C2O)c(=S)c1C#N (centres undefined)	> 100	59.3	> 100	> 100	65.8		> 100	95.8	87.2	> 100									

SMILES	TGI [1] [µM]	TGI [2] [µM]	TGI [3] [µM]	TGI [4] [µM]	TGI [5] [µM]	TGI [6] [µM]	TGI [7] [µM]	TGI [8] [µM]	TGI [9] [µM]	TGI [10] [µM]	GI50 [6] [µM]	GI50 [1] [µM]	GI50 [2] [µM]	GI50 [3] [µM]	GI50 [4] [µM]	GI50 [7] [µM]	GI50 [8] [µM]	GI50 [9] [µM]	GI50 [10] [µM]
C=C1C(=O)O[C@@H]2[C@H](O)[C@@H](C)[C@@H]3C=CC(=O)[C@@]3(C)[C@@H](OC(=O)/C(C)=C/C)[C@H]12	2.02	4.19	2.02	3.48		2.72	14.1		5.26	1.87									
Nc1ncn2c(n1)nc1ccccc12	> 100		> 100	> 100	> 100	> 100	> 100	> 100	> 100	> 100									
CC(=O)Oc1ccc2c(c1)CC[C@@H]1C2[C@@H](O[N+](=O)[O-])C[C@@]2(C)C1CC[C@@H]2O[N+](=O)[O-] (some centres undefined)	33.6	25.9	30.7	32.6	31.6	33.4		26.8	27.5	25.9									
CC(C)(C)OC(=O)CN1CCNCCN(CC(=O)OC(C)(C)C)CCNCC1	> 100	> 100	> 100	> 100		> 100	> 100		> 100	> 100									
COc1c(-c2nc3nc(N4CCN(C)CC4)ccc3[nH]2)cc(OC)c2c1nc(COC(C)=O)n2C	> 100		> 100	> 100	> 100	> 100	> 100	> 100	> 100	> 100									
C/C=C1\CN(C(=O)OC(C)(C)C)C1C(=O)OC(C)(C)C (centres undefined)	> 100	> 100	> 100	> 100	> 100	> 100	> 100			> 100									
CC(=O)Oc1c2c(c3n(c1=O)CCCC3)C(=O)N(c1ccccc1)C2=O	> 100	97.2	> 100	> 100	> 100	> 100	> 100	> 100	> 100										
Cc1ccc(C2=C(C#N)C(N)OC3=C2COc2ccccc23)cc1 (centres undefined)		> 100	> 100	> 100	> 100		67.9		51	> 100									
CCOC(=O)Nc1ccc2c(c1)c(CCCCCCc1nc3ccccc3c3ccc(NC(=O)OCC)cc13)nc1ccccc12	> 100	> 100	> 100	> 100	88.8	61.3	85.1	> 100		> 100									
Cn1c(CO)ccc1-c1ccc(-c2ccc[se]2)[se]1		> 47.7		> 43.3	> 100	> 100	27.2	> 100											
CCN(CC)CCN1C(=O)c2c(c3c4ccccc4[nH]c3c3ccc4ccccc4c23)C1=O	2.87	3.08	2.83	5.32		4.74	3.01	38.9	3.06	3.27	1.78	1.43	1.53	1.43	1.82	1.57	13	1.53	1.73
COc1c2c(c3ccccc3c1O)C1C=CC2C1 (centres undefined)	30.8	29.7	39		27.9	28.7			23.9										
CCOC(=O)NC(OC)(C(F)(F)F)C(F)(F)F	> 100	> 100	> 100	> 100	> 100	> 100	> 100		> 100	> 100									
O=C(Nc1cccc([N+](=O)[O-])c1)c1n[nH]n(-c2cccc([N+](=O)[O-])c2)c1=O	> 100		> 100	> 100	> 100	> 100	> 100	> 100	> 100	> 100									
CC(=O)Oc1c(-c2ccccc2)sc2ccccc12	22.8	32	30.7	36.2		> 100		44.5	39.8	37									
C=C1C(O)C[C@H](OC(C)=O)[C@]2(C)C1C(OC(C)=O)[C@]1(C(C)(C)O)CC(O)C(C)=C1[C@@H](OC(=O)c1ccccc1)C2OC(C)=O (some centres undefined)	> 10		> 10	> 10	> 10	> 10	> 10	> 10	> 10	> 10									
Cn1cc(-c2ccc3cc(-c4ccc(CC(=O)Nc5cc(C(C)(C)C)on5)cc4)cnc3c2)cn1	3.45	21	3.52	> 100		> 100	> 100	> 100			2.16	0.426	2.89	0.356	1.85	0.657	2.68		
CC1(C)CCC(C)(C)C1C(=O)NC(O)C(=O)O (centres undefined)		> 100	> 100	> 100	> 100	> 100	> 100	> 100	> 100										
Cc1cccc(N2C(=O)C3c4[nH]c5ccccc5c4C4CCC(C(C)(C)C)CC4C3C2=O)c1 (centres undefined)	26.1		16.4	17.4	28.3	13.3		> 100	47.8	44.6									
COc1ccc([C@@H]2CC(=O)N2)cc1	> 100		> 100	> 100	> 100	> 100	> 100		> 100	> 100									
O=C(O)c1cnc(-n2[nH]c3c(c2=O)CCCC3)[nH]c1=O	> 100		> 100	> 100	> 100	> 100	> 100	> 100	> 100	> 100									

Source: PubChem BioAssay (NCI)
